Source: patent US20060229299A1, “5ht2c Receptor antagonists in the treatment of schizophrenia” (priority 2003, published 2006)

Assays:
[1] = test system: 5-HT2C receptor relative to 5-HT2A and D2 receptors; assay: Relative 5-HT2C affinity (formula I, sum of 5-HT2C/5-HT2A and 5-HT2C/D2 affinity ratios); conditions: Table 2; sum of affinity ratios from data of Table 1
[2] = molecular target: α1-adrenoceptor; conditions: ref 11 (human and for ritanserin data also rat); cited from earlier work
[3] = molecular target: T1, 5-HT2C receptor (Homo sapiens, UniProt P28335); conditions: Table 3; expressed as pKi or pKd values; known affinities; cited from earlier work
T1 sequence (P28335 33-458): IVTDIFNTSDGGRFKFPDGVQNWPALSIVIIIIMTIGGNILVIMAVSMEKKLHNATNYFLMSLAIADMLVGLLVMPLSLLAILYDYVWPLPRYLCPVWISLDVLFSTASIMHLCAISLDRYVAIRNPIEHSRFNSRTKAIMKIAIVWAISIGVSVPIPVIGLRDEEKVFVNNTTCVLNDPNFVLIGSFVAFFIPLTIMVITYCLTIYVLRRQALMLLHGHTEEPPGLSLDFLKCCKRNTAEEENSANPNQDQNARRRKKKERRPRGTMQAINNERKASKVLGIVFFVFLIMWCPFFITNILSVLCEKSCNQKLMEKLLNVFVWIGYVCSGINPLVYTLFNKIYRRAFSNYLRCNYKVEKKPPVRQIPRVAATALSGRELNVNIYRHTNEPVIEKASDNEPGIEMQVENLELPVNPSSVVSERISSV

[4] = molecular target: H1 histamine receptor (Homo sapiens, UniProt P35367); conditions: ref 11 (human and for ritanserin data also rat); cited from earlier work
[5] = molecular target: 5-HT7 receptor (UniProt P34969); conditions: ref 11 (human and for ritanserin data also rat); cited from earlier work
[6] = molecular target: mACh, muscarinic acetylcholine receptor; conditions: ref 11 (human and for ritanserin data also rat); cited from earlier work
[7] = molecular target: D1 dopamine receptor; conditions: ref 11 (human and for ritanserin data also rat); cited from earlier work
[8] = molecular target: D3 dopamine receptor (Homo sapiens, UniProt P35462); conditions: ref 11 (human and for ritanserin data also rat); cited from earlier work
[9] = molecular target: D2 receptor (Homo sapiens, UniProt P14416); conditions: Table 3; expressed as pKi or pKd values; known affinities; cited from earlier work
Chain of D2 receptor (P14416 whole entry): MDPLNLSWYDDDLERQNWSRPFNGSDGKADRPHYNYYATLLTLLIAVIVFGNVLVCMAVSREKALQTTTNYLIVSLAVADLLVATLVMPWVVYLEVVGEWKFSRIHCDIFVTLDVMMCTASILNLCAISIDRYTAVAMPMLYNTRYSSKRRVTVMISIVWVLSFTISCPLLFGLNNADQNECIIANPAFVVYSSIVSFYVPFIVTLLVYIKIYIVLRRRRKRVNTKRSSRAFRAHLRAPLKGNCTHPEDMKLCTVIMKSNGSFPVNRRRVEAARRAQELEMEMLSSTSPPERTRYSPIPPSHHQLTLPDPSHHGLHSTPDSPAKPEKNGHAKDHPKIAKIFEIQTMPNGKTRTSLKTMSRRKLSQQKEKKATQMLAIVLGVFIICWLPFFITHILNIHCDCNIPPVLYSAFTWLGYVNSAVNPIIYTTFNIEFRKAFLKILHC

[10] = molecular target: 5-HT2C receptor (UniProt P28335); conditions: ref 11 (human and for ritanserin data also rat); cited from earlier work
[11] = molecular target: α2-adrenoceptor; conditions: ref 11 (human and for ritanserin data also rat); cited from earlier work
[12] = molecular target: D2-L (long form of D2 receptor) (Homo sapiens, UniProt P14416); conditions: ref 11 (human and for ritanserin data also rat); cited from earlier work
[13] = molecular target: sigma, σ receptor; conditions: ref 11 (human and for ritanserin data also rat); cited from earlier work

(2C/2A) + (2C/D2) [1]: 2.15
Structure (SMILES): Cc1nc2sccn2c(=O)c1CCN1CCC(=C(c2ccc(F)cc2)c2ccc(F)cc2)CC1 [Ritanserin]
α1 affinity value (−logKi) [2]: 7.5^11
5-HT2C Affinity [3]: 9
H1 affinity value (−logKi) [4]: 8.2^11
5-HT7 affinity value (−logKi) [5]: 7.8^11
mACh affinity value (−logKi) [6]: 5.4^11
D1 affinity value (−logKi) [7]: 5.9^11
D3 affinity value (−logKi) [8]: 7.1^11
D2 Affinity [9]: 7.4
5-HT2C affinity value (−logKi) [10]: 9.0^11
α2 affinity value (−logKi) [11]: 7.3^11
D2-L affinity value (−logKi) [12]: 7.4^11
sigma affinity value (−logKi) [13]: 6.1^11
